Literature values in paper PMC2365120, “Antitumour Metallocenes: Effect of DMSO on the Stability of Cp2TiX2 and Implications for Anticancer Activity” (Metal-Based Drugs, 1998).
Read-outs that look alike come from different tables or passages of the source.

Key:
[1] = tested on: fluid Ehrlich ascites tumour; conditions: for Optimum Cure Rate (%) / Optimum dose range: fluid Ehrlich ascites tumour, samples administered in 10%DMSO/saline
[2] = samples administered in 10%DMSO/saline
[3] = for % Cp hydrolysis: Table 3, D2O (pD ~2-3), reaction time 24 h

| Compound | Optimum Cure Rate (%) ([1]; Table 1, Cp2TiX2) | Optimum dose range ([1]; Table 1, Cp2TiX2) | LD50 ([2]; Table 1, Cp2TiX2) | further results |
| --- | --- | --- | --- | --- |
| [Cl-].[Cl-].[Ti+4].c1cc[cH-]c1.c1cc[cH-]c1 [Compound 1, Titanocene dichloride, reference compound] | 100% | 40-60 mg/kcj | 100 mg/kg | % Cp hydrolysis [3]: 0%; Time the Cp rings remain metal bound ([3]; in water, low pH after halide hydrolysis): over 24 h |
| [F][Ti+2][F].c1cc[cH-]c1.c1cc[cH-]c1 [Compound 2] | 100% | 40 mg/kcj | 60 mg/kg |  |
| [Br][Ti+2][Br].c1cc[cH-]c1.c1cc[cH-]c1 [Compound 3] | 100% |  | 135 mg/kg |  |
| [I][Ti+2][I].c1cc[cH-]c1.c1cc[cH-]c1 [Compound 4] | 100% | 60-100 mg/kcj | 145 mg/kg |  |
| S=C=[N][Ti+2][N]=C=S.c1cc[cH-]c1.c1cc[cH-]c1 [Compound 5] | 100% | 80 mg/kcj | 135 mg/kg |  |
| O=C(O)C(Cl)(Cl)Cl.O=C(O)C(Cl)(Cl)Cl.[Ti+2].c1cc[cH-]c1.c1cc[cH-]c1 [Compound 8, titanocene bis(trichloroacetate)] | 100% | 100-360 mg/kcj | 440 mg/kg | Aqueous solubility: poor |
| O=C(O)/C=C\C(=O)[O][Ti+2][O]C(=O)/C=C\C(=O)O.c1cc[cH-]c1.c1cc[cH-]c1 [Compound 9] | 100% | 60-120 mg/kcj | 170 mg/kg | Aqueous solubility: increase in aqueous solubility |
| O=[N+]([O-])c1ccc([O][Ti+2][O]c2ccc([N+](=O)[O-])cc2)cc1.c1cc[cH-]c1.c1cc[cH-]c1 [Compound 10] | 10% | 180-240 mg/kcj | 260 mg/kg |  |
| Fc1c(F)c(F)c([O][Ti+2][O]c2c(F)c(F)c(F)c(F)c2F)c(F)c1F.c1cc[cH-]c1.c1cc[cH-]c1 [Compound 11] | 100% | 340-360 mg/kcj | 480 mg/kg |  |
| Fc1c(F)c(F)c([S][Ti+2][S]c2c(F)c(F)c(F)c(F)c2F)c(F)c1F.c1cc[cH-]c1.c1cc[cH-]c1 [Compound 12] | 100% | 120-180 mg/kcj | 260 mg/kg |  |
| [Cl-].[Cl-].[NH3+]CC(=O)[O][Ti+2][O]C(=O)C[NH3+].c1cc[cH-]c1.c1cc[cH-]c1 [Compound 13, titanocene bis(glycine)] | 50% |  | > 160 mg/kg | % Cp hydrolysis [3]: < 2% |
| C[C@H]([NH3+])C(=O)[O][Ti+2][O]C(=O)[C@H](C)[NH3+].[Cl-].[Cl-].c1cc[cH-]c1.c1cc[cH-]c1 [Compound 14] | 50% | 160 mg/kcj | 185 mg/kg | Aqueous solubility: highly water soluble |
| [Cl][Ti+2][O]c1ccc(Cl)c(Cl)c1Cl.c1cc[cH-]c1.c1cc[cH-]c1 [Compound 15] |  |  |  | Optimum Cure Rate (%) ([1]; Table 2, Cp2TiClX): 50%; Optimum dose range ([1]; Table 2, Cp2TiClX): 60 to 140 mg/kg; LD50 ([2]; Table 2, Cp2TiClX): 200 mg/kg |
| Cc1ccccc1[S][Ti+2][Cl].c1cc[cH-]c1.c1cc[cH-]c1 [Compound 16] |  |  |  | Optimum Cure Rate (%) ([1]; Table 2, Cp2TiClX): 25%; Optimum dose range ([1]; Table 2, Cp2TiClX): 30 to 60 mg/kg |
| Nc1ccccc1[S][Ti+2][Cl].c1cc[cH-]c1.c1cc[cH-]c1 [Compound 17] |  |  |  | Optimum Cure Rate (%) ([1]; Table 2, Cp2TiClX): 13%; LD50 ([2]; Table 2, Cp2TiClX): 100 mg/kg |
| [Cl][Ti+]([Cl])[Cl].c1cc[cH-]c1 [CpTiCI3, reference compound] |  |  |  | Antitumour activity ([1]; partially hydrolysed derivative lacking one Cp ring): reduced activity |
